In ChEMBL document CHEMBL3774361, “Synthesis and evaluation of thieno[2,3-d]pyrimidin-4(3H)-ones as potential antitubercular agents” (Medchemcomm, 2015):
Values after ≈ are worked out from the molar mass of the structure shown.

Assays:
[1] = Selectivity index, ratio of GI50 for human THP1 cells to MIC90 for active stage of Mycobacterium bovis BCG ATCC 35743; format: toxicity, cell-based, THP-1; details: read-out: Selectivity Index
[2] = Selectivity index, ratio of GI50 for human THP1 cells to MIC90 for active stage of Mycobacterium tuberculosis H37Ra; format: toxicity, cell-based, THP-1; details: read-out: Selectivity Index
[3] = Selectivity index, ratio of GI50 for human HCT116 cells to MIC90 for active stage of Mycobacterium bovis BCG ATCC 35743; format: toxicity, cell-based, HCT-116; details: read-out: Selectivity Index
[4] = Selectivity index, ratio of GI50 for human HCT116 cells to MIC90 for active stage of Mycobacterium tuberculosis H37Ra; format: toxicity, cell-based, HCT-116; details: read-out: Selectivity Index
[5] = Selectivity index, ratio of GI50 for human A549 cells to MIC90 for active stage of Mycobacterium bovis BCG ATCC 35743; format: toxicity, cell-based; details: read-out: Selectivity Index
[6] = Selectivity index, ratio of GI50 for human A549 cells to MIC90 for active stage of Mycobacterium tuberculosis H37Ra; format: toxicity, cell-based; details: read-out: Selectivity Index
[7] = Selectivity index, ratio of GI50 for human MCF7 cells to MIC90 for active stage of Mycobacterium bovis BCG ATCC 35743; format: toxicity, cell-based; details: read-out: Selectivity Index
[8] = Selectivity index, ratio of GI50 for human MCF7 cells to MIC90 for active stage of Mycobacterium tuberculosis H37Ra; format: toxicity, cell-based; details: read-out: Selectivity Index
[9] = Cytotoxicity against human THP1 cells incubated for 1 to 11 days by MTT assay; format: cell-based, THP-1
[10] = Cytotoxicity against human HCT116 cells incubated for 1 to 11 days by MTT assay; format: cell-based, HCT-116
[11] = system: Mycobacterium tuberculosis; experiment: Antitubercular activity against active stage of Mycobacterium tuberculosis H37Ra assessed as cell viability after 8 days by XTT reduction menadione assay; format: functional; details: 192 h
[12] = system: Mycobacterium tuberculosis; experiment: Antitubercular activity against dormant stage of Mycobacterium tuberculosis H37Ra assessed as cell viability after 12 days by XTT reduction menadione assay; format: functional; details: 288 h
[13] = Antibacterial activity against active stage of Mycobacterium bovis BCG ATCC 35743 assessed as cell viability after 8 days by nitrate reductase assay; format: functional, Mycobacterium bovis BCG str. ATCC 35743; details: Mycobacterium tuberculosis variant bovis BCG, ATCC 35743, 192 h
[14] = Antibacterial activity against dormant stage of Mycobacterium bovis BCG ATCC 35743 assessed as cell viability after 12 days by nitrate reductase assay; format: functional, Mycobacterium bovis BCG str. ATCC 35743; details: Mycobacterium tuberculosis variant bovis BCG, ATCC 35743, 288 h
[15] = Cytotoxicity against human MCF7 cells incubated for 1 to 11 days by MTT assay; format: cell-based
[16] = (§1) Cytotoxicity against human A549 cells incubated for 1 to 11 days by MTT assay; format: cell-based; details: A549 cells
A549 = experiment: as §1; format: cell-based; details: a549

| Compound | selectivity ratio [1] | selectivity ratio [2] | selectivity ratio [3] | selectivity ratio [4] | selectivity ratio [5] | selectivity ratio [6] | selectivity ratio [7] | selectivity ratio [8] | GI50 [9] [µg/mL] | GI50 [10] [µg/mL] | MIC90 [11] | MIC90 [12] [µg/mL] | MIC90 [13] [µg/mL] | MIC90 [14] [µg/mL] | GI50 [15] [µg/mL] | GI50 [16] [µg/mL] | GI90 (A549) [µg/mL] |
| --- | --- | --- | --- | --- | --- | --- | --- | --- | --- | --- | --- | --- | --- | --- | --- | --- | --- |
| CCCCCn1cnc2sc(CC)cc2c1=O | 10 | 2 | 10 | 2 | > 10 | 2 | > 10 | 2 | > 100 | > 100 | 44.1 µg/mL | 43.8 (≈ 175 µM) | 10.1 (≈ 40.3 µM) | 20.8 (≈ 82.9 µM) | > 100 | > 100 |  |
| CCCCCCCc1cc2c(=O)n(CC3CC3)cnc2s1 | 66 | 2 | 66 | 2 | > 66 | 2 | > 66 | 2 | > 100 | > 100 | 49.3 µg/mL | 49.1 (≈ 161 µM) | 1.52 (≈ 4.99 µM) | 2.01 (≈ 6.6 µM) | > 100 | > 100 |  |
| CCCCCCCc1cc2c(=O)n(CCN=[N+]=[N-])cnc2s1 | 77 | 48 | 77 | 48 | > 77 | 48 | > 77 | 48 | > 100 | > 100 | 6.5 µM | 8.33 (≈ 26.1 µM) | 1.3 (≈ 4.07 µM) | 2.26 (≈ 7.08 µM) | > 100 | > 100 |  |
| CCCCCCCCCCc1cc2c(=O)n(CCO)cnc2s1 | 5 | 15 | 5 | 15 | > 5 | 15 | > 5 | 15 | > 100 | > 100 | 6.7 µg/mL | 15 (≈ 44.6 µM) | 21.4 (≈ 63.7 µM) | 23.4 (≈ 69.6 µM) | > 100 | > 100 |  |
| CCCCCCCc1cc2c(=O)n(CC#N)cnc2s1 | 53 | 40 | 53 | 40 | > 53 | 40 | > 53 | 40 | > 100 | > 100 | 8.68 µM | 5.2 (≈ 18 µM) | 1.89 (≈ 6.53 µM) | 3.02 (≈ 10.4 µM) | > 100 | > 100 |  |
| CCCCCCCc1cc2c(=O)n(CCCBr)cnc2s1 | 16 | 6 | 16 | 6 | 5 | 2 | 3 | 1 | > 100 | > 100 | 17.5 µg/mL | 18.5 (≈ 49.8 µM) | 6.3 (≈ 17 µM) | 9.37 (≈ 25.2 µM) | 19.7 (≈ 53 µM) | 34.1 (≈ 92 µM) |  |
| CCCCCCc1cc2c(=O)n(CCN=[N+]=[N-])cnc2s1 | 25 | 12 | 4 | 2 | 4 | 2 | > 25 | 12 | > 100 | 14.7 (≈ 48.1 µM) | 8.42 µg/mL | 11.5 (≈ 37.8 µM) | 4.08 (≈ 13.4 µM) | 4.51 (≈ 14.8 µM) | > 100 | 16.2 (≈ 52.9 µM) | 74.66 (≈ 244 µM) |
| CCCCCc1cc2c(=O)n(CCC)cnc2s1 | 12 | 2 | 12 | 2 | 3 | 1 | 4 | 1 | > 100 | > 100 | 42.9 µg/mL | 36.3 (≈ 137 µM) | 8.51 (≈ 32.2 µM) | 9.82 (≈ 37.1 µM) | 33.8 (≈ 128 µM) | 27.4 (≈ 103 µM) |  |
| C=CCCCCCCCc1cc2c(=O)n(CCBr)cnc2s1 | 41 | 29 | 18 | 12 | 19 | 13 | 11 | 7 | > 100 | 42.4 (≈ 111 µM) | 3.5 µg/mL | 6.31 (≈ 16.5 µM) | 2.42 (≈ 6.31 µM) | 1.4 (≈ 3.65 µM) | 26.1 (≈ 68.1 µM) | 45.4 (≈ 119 µM) |  |
| CCCCCc1cc2c(=O)n(CC3CC3)cnc2s1 | 20 | 3 | 20 | 3 | > 20 | 3 | > 20 | 3 | > 100 | > 100 | 38.3 µg/mL | > 50 | 4.95 (≈ 17.9 µM) | 8.07 (≈ 29.2 µM) | > 100 | > 100 |  |
| CCCCCCCCCCc1cc2c(=O)n(CCBr)cnc2s1 | 44 | 4 | 44 | 4 | 15 | 1 | 9 | 1 | > 100 | > 100 | 24.6 µg/mL | 35.2 (≈ 88.2 µM) | 2.29 (≈ 5.73 µM) | 3.35 (≈ 8.39 µM) | 20.5 (≈ 51.4 µM) | 35.1 (≈ 87.8 µM) |  |
| CCCCCCc1cc2c(=O)n(CC3CC3)cnc2s1 | 73 | 2 | 13 |  | > 73 | 2 | 18 | 1 | > 100 | 17.6 (≈ 60.7 µM) | 45.9 µg/mL | 42.7 (≈ 147 µM) | 1.37 (≈ 4.72 µM) | 2.34 (≈ 8.06 µM) | 24.8 (≈ 85.5 µM) | > 100 |  |
| CC(=O)O[C@H]1C(=O)[C@@]2(C)[C@H]([C@H](OC(=O)c3ccccc3)[C@]3(O)C[C@H](OC(=O)[C@H](O)[C@@H](NC(=O)c4ccccc4)c4ccccc4)C(C)=C1C3(C)C)[C@]1(OC(C)=O)CO[C@@H]1C[C@@H]2O [PACLITAXEL] |  |  |  |  |  |  |  |  | 0.137 (≈ 0.161 µM) | 0.026 (≈ 0.0304 µM) |  |  |  |  | 0.0048 (≈ 0.00562 µM) |  |  |
| CO[C@H]1/C=C/O[C@@]2(C)Oc3c(C)c(O)c4c(O)c(c(/C=N/N5CCN(C)CC5)c(O)c4c3C2=O)NC(=O)/C(C)=C\C=C\[C@H](C)[C@H](O)[C@@H](C)[C@@H](O)[C@@H](C)[C@H](OC(C)=O)[C@@H]1C [RIFAMPIN] | 222 | 196 | 222 | 196 |  | 196 |  | 196 | > 100 | > 100 | 0.51 µg/mL | 0.75 (≈ 0.911 µM) | 0.45 (≈ 0.547 µM) | 0.81 (≈ 0.984 µM) | > 100 | > 100 |  |
